We go through 2 compounds from ChEMBL document CHEMBL1156970, “Endoxifen is a new potent inhibitor of PKC: a potential therapeutic agent for bipolar disorder” (Bioorg Med Chem Lett, 2010).

Activity calls are given as the source filed them. The rule behind the calls is not given here.

Series [1] is described as follows: Inhibition of PKC at 0.2 mM after 90 mins by ELISA. In general terms: ELISA stands for enzyme-linked immunosorbent assay.
Series [2] can be described thus: Inhibition of PKC at 0.025 to 0.05 mM after 90 mins by ELISA.
Series [3] is described as follows: Inhibition of PKC at 0.1 mM after 90 mins by ELISA.
Series [4] can be described thus: Inhibition of PKC at 0.025 mM after 90 mins by ELISA.
Series [5] is described as follows: Inhibition of PKC after 90 mins by ELISA.
For series [6], the system named is Rattus norvegicus. The experiment in a line: Toxicity in rat at 4 mg/kg, po after 28 days. Format: organism-based. Set-up: dose 4 mg/kg, route oral. The note with it: in vivo, 672 h.
Series [7] deals with Mus musculus. The experiment in a line: Toxicity in mouse at 8 mg/kg, po after 28 days. The note with it: in vivo, 672 h. Format: organism-based. Details: dose 8 mg/kg, route oral.

In general, inhibition refers to the drop in the measured response relative to a control, in per cent. `CC/C(=C(\c1ccccc1)c1ccc(OCCN(C)C)cc1)c1ccccc1`: the inhibition in series [1] is 25%; in series [3] it was 14%. In addition, the inhibition result in series [2] is “inactive”.

`CC/C(=C(\c1ccc(O)cc1)c1ccc(OCCNC)cc1)c1ccccc1` [ENDOXIFEN]: the inhibition in series [1] is 78%; in series [4] it was 12%; in series [5] it was “Dose-dependent effect”. Also, the Activity entry in series [6] and in series [7] was “Non-toxic” in each case.
